Reference: publication PMC9956360, “Production of a Fungal Punicalagin-Degrading Enzyme by Solid-State Fermentation: Studies of Purification and Characterization” (Foods, 2023)

Tested on: T1, EAH (EAH 1 and EAH 2), ellagitannin-acyl hydrolase identified as alpha-L-arabinofuranosidase
T1 construct: gene abfB; native secreted protein from solid-state fermentation, co-purified mixture; 499 residues each; domains ArabFuran-catal (20-334 / 20-333) and AbfB (352-493)
Test: Lineweaver-Burk
Format: biochemical, Aspergillus niger
Conditions: mixture of two co-purified isoforms; temperature and pH of kinetics not stated
Excerpt: Lineweaver-Burk on EAH (EAH 1 and EAH 2), ellagitannin-acyl hydrolase identified as alpha-L-arabinofuranosidase

- Km: 6.66 mM
Compound: COC(=O)c1cc(O)c(O)c(O)c1 [methyl gallate]
